Laboratory results reported in patent US20090111854A1, “1,2,4-TRIAZOLE ARYL N-OXIDES DERIVATIVES AS MODULATORS OF MGLUR5” (AstraZeneca AB, priority 2007, published 2009).

Key:
[1] = Determination of brain to plasma ratio in rat; type: in vivo, female Sprague Dawley rats; details: female, Sprague Dawley, brain and plasma, read-out: Brain/Plasma Ratio of compound in Rat
Description: Brain to plasma ratios are estimated in female Sprague Dawley rats. The compound is dissolved in water or another appropriate vehicle. For determination of brain to plasma ratio the compound is administrated as a subcutaneous, or an intravenous bolus injection, or an intravenous infusion, or an oral administration. At a predetermined time point after the administration a blood sample is taken with cardiac puncture. The rat is terminated by cutting the heart open, and the brain is immediately retained. The blood samples are collected in heparinized tubes and centrifuged within 30 minutes, in order to separate the plasma from the blood cells. The plasma is transferred to 96-well plates and stored at −20° C. until analysis. The brains are divided in half, and each half is placed in a pre-tarred tube and stored at −20° C. until analysis. Prior to the analysis, the brain samples are thawed and 3 mL/g brain tissue of distilled water is added to the tubes. The brain samples are sonicated in an ice bath until the samples are homogenized. Both brain and plasma samples are precipitated with acetonitrile. After centrifugation, the supernatant is diluted with 0.2% formic acid. Analysis is performed on a short reversed-phase HPLC column with rapid gradient elution and MSMS detection using a triple quadrupole instrument with electrospray ionisation and Selected Reaction Monitoring (SRM) acquisition. Liquid-liquid extraction may be used as an alternative sample clean-up. The samples are extracted, by shaking, to an organic solvent after addition of a suitable buffer. An aliquot of the organic layer is transferred to a new vial and evaporated to dryness under a stream of nitrogen. After reconstitution of the residuals the samples are ready for injection onto the HPLC column.

human mGluR5d = molecular target: T1, human mGluR5d (Homo sapiens, UniProt P41594); assay: FLIPR assay, functional assessment of mGluR5 antagonism (intracellular calcium mobilization); type: cell-based; details: cells expressing human mGluR5d; read-out: FLIPR hmGluR5d
T1 construct: expressed in transfected cells; The culture medium contains hygromycin B and Zeocin as selection agents; The separate IP3 assay names 'GHEK stably expressing the human mGluR5d'
Text: Functional Assessment of mGluR5 Antagonism it Cell Lines Expressing mGluR5D
The properties of the compounds of the invention can be analyzed using standard assays for pharmacological activity. Examples of glutamate receptor assays are well known in the art as described in for example Aramori et al., Neuron 8:757 (1992), Tanabe et al., Neuron 8:169 (1992), Miller et al., J. Neuroscience 15: 6103 (1995), Balazs, et al., J. Neurochemistry 69:151 (1997). The methodology described in these publications is to incorporated herein by reference. Conveniently, the compounds of the invention can be studied by means of an assay (FLIPR) that measures the mobilization of intracellular calcium, [Ca^2+]i in cells expressing mGluR5 or another assay (IP3) that measures inositol phosphate turnover.
Cells expressing human mGluR5d as described in WO97/05252 cultured in a mixture of high glucose DMEM with Glutamax (31966-021) (500 mL), 10% dialyzed fetal bovine serum (Hyclone #SH30079.03)(56 mL), 200 μg/mL Hygromycin B (Invitrogen 45-0430, 50 mg/mL) (2.2 mL), 200 μg/mL Zeocin (Invitrogen #R250-01; 100 mg/mL)(1.1 mL) are seeded at a density of 100,000 cells per well on collagen coated clear bottom 96-well plates with black sides and cells were allowed to adhere over night before experiments. All assays are done in a buffer containing 146 mM NaCl, 5 mM KCl, 1 mM MgCl2, 1 mM CaCl2, 20 mM HEPES, 1 mg/mL glucose and 1 mg/mL BSA Fraction IV (pH 7.4). Cell cultures in the 96-well plates are loaded for 60 minutes in the above mentioned buffer containing 6 μM of the acetoxymethyl ester form of the fluorescent calcium indicator fluo-3 (Molecular Probes, Eugene, Oreg.) in 0.025% pluronic acid (a proprietary, non-ionic surfactant polyol—CAS Number 9003-11-6). […] The fluorescence signal is sampled 50 times at 1-second intervals followed by 3 samples at 5-second intervals immediately after each of the two additions. Responses are measured as the difference between the peak heights of the response to agonist, less the background fluorescence within the sample period. […]

T1 sequence (P41594 21-942 isoform P41594-3 limits assumed): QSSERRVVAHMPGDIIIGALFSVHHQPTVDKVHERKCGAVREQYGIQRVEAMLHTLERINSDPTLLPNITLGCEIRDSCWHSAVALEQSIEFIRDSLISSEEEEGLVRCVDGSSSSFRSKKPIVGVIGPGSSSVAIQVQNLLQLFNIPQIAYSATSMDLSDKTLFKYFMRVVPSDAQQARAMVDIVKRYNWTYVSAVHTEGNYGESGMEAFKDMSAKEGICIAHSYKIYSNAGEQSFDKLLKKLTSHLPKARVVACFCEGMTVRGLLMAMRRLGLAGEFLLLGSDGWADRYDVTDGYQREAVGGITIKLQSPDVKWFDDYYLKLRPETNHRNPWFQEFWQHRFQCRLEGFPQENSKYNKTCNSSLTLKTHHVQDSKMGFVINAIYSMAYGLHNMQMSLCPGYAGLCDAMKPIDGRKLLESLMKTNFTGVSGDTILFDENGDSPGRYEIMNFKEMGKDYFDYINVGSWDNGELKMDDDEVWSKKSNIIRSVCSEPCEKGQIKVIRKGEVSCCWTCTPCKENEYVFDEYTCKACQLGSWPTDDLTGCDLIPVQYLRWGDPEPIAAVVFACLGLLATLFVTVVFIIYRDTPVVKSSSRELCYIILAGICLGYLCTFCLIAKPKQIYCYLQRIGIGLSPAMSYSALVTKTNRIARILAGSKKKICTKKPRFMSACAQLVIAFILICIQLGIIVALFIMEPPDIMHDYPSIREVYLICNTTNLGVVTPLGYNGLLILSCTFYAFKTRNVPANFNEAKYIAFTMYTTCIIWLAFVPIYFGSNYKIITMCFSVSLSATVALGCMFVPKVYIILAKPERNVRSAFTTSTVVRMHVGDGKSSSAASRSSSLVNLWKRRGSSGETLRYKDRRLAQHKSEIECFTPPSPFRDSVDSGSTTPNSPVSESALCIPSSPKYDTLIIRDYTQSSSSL

| Kp [1] | IC50 (human mGluR5d) [µM] | SMILES |
| --- | --- | --- |
| 0.01 | 0.081 | C[C@@H](c1noc(-c2cccc(Cl)c2)n1)N(C)c1nnc(-c2cc[n+]([O-])cc2)n1C [Example 4, N-{(1S)-1-[5-(3-chlorophenyl)-1,2,4-oxadiazol-3-yl]ethyl}-N,4-dimethyl-5-(1-oxidopyridin-4-yl)-4H-1,2,4-triazol-3-amine] |
| < 0.015 | 0.049 | Cn1c(-c2ccc[n+]([O-])c2)nnc1N1CCCC[C@@H]1c1nnn(-c2cccc(Cl)c2)n1 [Example 5, 3-(5-{(2R)-2-[2-(3-chlorophenyl)-2H-tetrazol-5-yl]piperidin-1-yl}-4-methyl-4H-1,2,4-triazol-3-yl)pyridine 1-oxide] |
| < 0.01 | 0.108 | Cn1c(-c2ccc[n+]([O-])c2)nnc1N1CCC[C@@H]1c1nnn(-c2cccc(Cl)c2)n1 [Example 6, 3-(5-{(2R)-2-[2-(3-chlorophenyl)-2H-tetrazol-5-yl]pyrrolidin-1-yl}-4-methyl-4H-1,2,4-triazol-3-yl)pyridine 1-oxide] |
